Bounds are passed on as bounds.

T1 sequence (P00746 26-253): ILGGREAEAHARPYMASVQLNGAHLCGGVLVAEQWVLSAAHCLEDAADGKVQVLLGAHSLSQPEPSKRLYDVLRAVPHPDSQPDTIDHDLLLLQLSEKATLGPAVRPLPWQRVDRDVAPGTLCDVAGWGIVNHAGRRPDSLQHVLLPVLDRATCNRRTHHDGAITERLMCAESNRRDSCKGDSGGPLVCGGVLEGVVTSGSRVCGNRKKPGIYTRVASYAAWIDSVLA

The assay concerns the target T1, Human Factor D (Homo sapiens, UniProt P00746).
T1 construct: purified from human serum; purchased Complement Technology, Inc; host or cells: human serum (natural protein, not recombinant)
Briefly: Human Factor D Assay. Format: biochemical. The conditions noted are these: Table 3; factor D inhibition assay; read-out: IC50 (Stars). The method, boiled down: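 Serum-purified human factor D (80 nM final) was preincubated with compound for 5 min at room temperature in 50 mM Tris, 1 M NaCl, pH 7.5. Z-L-Lys-SBzl and DTNB were added at 100 μM each, and A405 was read every 30 s for 30 min. IC50 came from nonlinear regression of reaction rates versus compound concentration.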
What is called IC50 is the point on the concentration scale where inhibition reaches its midpoint. Regarding `CC(=O)c1cn(CC(=O)N2C[C@H](F)C[C@H]2CCNS(=O)(=O)c2ccccc2)c2ccc(NC(=O)N3CCCC(F)(F)C3)cc12` [Compound 201, N-(3-acetyl-1-(2-((2R,4R)-4-fluoro-2-(2-(phenylsulfonamido)ethyl)pyrrolidin-1-yl)-2-oxoethyl)-1H-indol-5-yl)-3,3-difluoro-piperidine-1-carboxamide], the IC50 was 1000 to 10000 nM.
As to `CC(=O)c1cn(CC(=O)N2CC[C@H]2C(=O)Nc2cccc(C)n2)c2ccc(NC(=O)N3CCCC(F)(F)C3)cc12` [Compound 205, (S)-N-(3-acetyl-1-(2-(2-((6-methylpyridin-2-yl)-carbamoyl)-azetidin-1-yl)-2-oxoethyl)-1H-indol-5-yl)-3,3-difluoropiperidine-1-carboxamide], the IC50 was more than 10000 nM.
The value for `Cc1cccc(NC(=O)[C@@H]2[C@H]3CC[C@H](C3)N2C(=O)Cn2cc(C(N)=O)c3cc(C(=O)N4CCCC(F)(F)C4)ccc32)n1` [Compound 206, 5-(3,3-difluoropiperidine-1-carbonyl)-1-(2-((1R,3S,4S)-3-((6-methyl-pyridin-2-yl)-carbamoyl)-2-aza-bicyclo[2.2.1]heptan-2-yl)-2-oxoethyl)-1H-indole-3-carboxamide] was 1000 to 10000 nM.
With `CC(=O)c1nn(CC(=O)N2C[C@H](F)C[C@H]2C(=O)Nc2cccc(Br)n2)c2ccc(NC(=O)N3CCC(F)(F)C3)cc12` [Compound 207, N-(3-acetyl-1-(2-((2S,4R)-2-((6-bromo-pyridin-2-yl)carbamoyl)-4-fluoro-pyrrolidin-1-yl)-2-oxoethyl)-1H-indazol-5-yl)-3,3-difluoro-pyrrolidine-1-carboxamide] the figure was less than 1000 nM; with `CC(=O)c1cn(CC(=O)N2C[C@H](F)C[C@H]2C(=O)NCc2cccc(Cl)c2F)c2ccc(C(=O)NS(=O)(=O)C3CC3)cc12` [Compound 208, 3-acetyl-1-(2-((2S,4R)-2-((3-chloro-2-fluorobenzyl)carbamoyl)-4-fluoropyrrolidin-1-yl)-2-oxoethyl)-N-(cyclopropylsulfonyl)-1H-indole-5-carboxamide], less than 1000 nM.
The value for `Cc1cccc(NC(=O)[C@@H]2[C@H]3CC[C@H](C3)N2C(=O)Cn2cc(C(N)=O)c3cc(C(=O)NS(=O)(=O)C4CC4)ccc32)n1` [Compound 209, N5-(cyclopropylsulfonyl)-1-(2-((1R,4S)-3-((6-methyl-pyridin-2-yl)carbamoyl)-2-aza-bicyclo[2.2.1]heptan-2-yl)-2-oxoethyl)-1H-indole-3,5-dicarboxamide] was more than 10000 nM; that for `CC(=O)c1nn(CC(=O)N2C[C@H](F)C[C@H]2C(=O)Nc2cccc(Br)n2)c2ccc(NC(=O)C3CCCC3(F)F)cc12` (stereo partly drawn) [Compound 230] was less than 1000 nM.
Take `CC(=O)c1nn(CC(=O)N2C[C@H](F)C[C@H]2C(=O)Nc2cccc(Br)n2)c2cc(C(=O)NS(=O)(=O)C3CC3)ccc12` [Compound 233, 3-acetyl-1-(2-((2S,4R)-2-((6-bromopyridin-2-yl)-carbamoyl)-4-fluoro-pyrrolidin-1-yl)-2-oxoethyl)-N-(cyclopropylsulfonyl)-1H-indazole-6-carboxamide]: the IC50 is less than 1000 nM.
`CC(=O)c1nn(CC(=O)N2[C@H](C(=O)Nc3cccc(Br)n3)C[C@@]3(C)C[C@@H]23)c2cc(C(=O)NS(=O)(=O)C3CC3)ccc12` [Compound 234, 3-acetyl-1-(2-((1R,3S,5R)-3-((6-bromopyridin-2-yl)carbamoyl)-5-methyl-2-azabicyclo [3.1.0]hexan-2-yl)-2-oxoethyl)-N-(cyclopropylsulfonyl)-1H-indazole-6-carboxamide]: the IC50 lay within 1000 to 10000 nM.

(Values after patent US10138225B2 (Achillion Pharmaceuticals, Inc., priority 2015, dated 2018).)
